According to patent publication US10907099B2, “Compound, composition, cured object, optically anisotropic body, and reflective film” (FUJIFILM Corporation, priority 2016, dated 2021):

Key:
[1] = Solubility measurement in ethyl methyl ketone; assay type: physicochemical; details: concentration (% by mass) of compound completely dissolved in ethyl methyl ketone
Description: Ethyl methyl ketone was added dropwise to each of the compounds, and a concentration (% by mass) of the compound in the obtained ethyl methyl ketone solution in a case where the compound was completely dissolved in the solution was measured as “solubility”. It is intended that a higher numerical value of solubility indicates excellent solubility in ethyl methyl ketone.

[2] = Measurement of light fastness (residual rate after ultraviolet irradiation); assay type: physicochemical; details: for Evaluation of light fastness: 5 mg in acetonitrile 20 ml, 1 cm quartz cell, ultraviolet light 3 J/cm^2, residual rate by liquid chromatography; for light fastness (in words): based on the results in Table 1
Description: Each (5 mg) of the compounds was dissolved in acetonitrile (20 ml), sealed in a 1 cm quartz cell, and the quartz cell was irradiated with ultraviolet light under a condition of 3 J/cm^2 using EXECURE 3000-W manufactured by HOYA-SCHOTT CORPORATION, so that a residual rate of each compound was measured. Amounts (masses) of each compound before and after light irradiation were calculated using liquid chromatography. In the table, “A” represents a residual rate of equal to or greater than 80%, “B” represents a residual rate of equal to or greater than 50% and less than 80%, and “C” represents a residual rate of less than 50%.

Row | Compound | Solubility (MEK) [1] [%] | Evaluation of light fastness [2] | light fastness (in words) [2]
1 | C=CC(=O)OCCCCOc1ccc(C#Cc2cc(C)c(NC(=O)C(=O)Nc3ccc(C#Cc4ccc(OCCCCOC(=O)C=C)cc4)cc3C(F)(F)F)c(C)c2)cc1 [Compound a-2] | 14 | A (residual rate of equal to or greater than 80%) | excellent in light fastness
2 | C=CC(=O)OCCCCCCOc1ccc(C(=O)Oc2ccc(C#Cc3ccc(CCCCCCC)cc3)cc2)cc1 [Comparative Compound b-1, reference compound] |  | C (residual rate of less than 50%) | does not satisfy the desired requirement for light fastness
3 | C=CC(=O)OCCCCOc1ccc(C#Cc2ccc(NC(=O)C(=O)Nc3ccc(C#Cc4ccc(OCCCCOC(=O)C=C)cc4)cc3C(F)(F)F)c(C(F)(F)F)c2)cc1 [Compound a-1] | 2 | A (residual rate of equal to or greater than 80%) | excellent in light fastness
